This is an account of results in ChEMBL document CHEMBL4052639, “2-Isocyano glucose used in Ugi four-component reaction: An approach to enhance inhibitory effect against DNA oxidation” (Eur J Med Chem, 2017).

What all share (type): functional
A short description of test [1]: Antioxidant activity assessed as reduction in hydroxyl radical-induced DNA oxidation by measuring TBARS level at 400 uM after 90 mins relative to control. On the set-up: scale not given: the % may be the effect or the level left.
Test [2] can be described thus: Antioxidant activity assessed as reduction in AAPH-induced DNA oxidation up to 400 uM measured every 2 hrs by TBARS assay.
Test [3] is described as follows: Antioxidant activity assessed as reduction in Cu2+/GSH-induced DNA oxidation by measuring TBARS level at 400 uM after 90 mins relative to control. On the set-up: scale not given: the % may be the effect or the level left.

Calls of active or inactive are those of the source. No cut-off for these calls is given here.

With `COc1cc(/C=C/C(=O)N(CC(=O)N[C@@H]2[C@@H](O)[C@H](O)[C@@H](CO)O[C@H]2O)Cc2ccccc2)ccc1O`, the Activity was found to be 94.7% in test [1] and 92.8% in test [3]. For the same compound, the outcome in test [2] was Active.

For the compound `O=C(CN(C(=O)c1cc(O)c(O)c(O)c1)c1ccccc1)NC12CC3CC(CC(C3)C1)C2`, the results for the Activity in test [1] and in test [3] were 95.6% and 93.6%, respectively. The outcome in test [2] was Active.

On to `O=C(O)c1ccc(O)cc1`, for which the outcome in test [2] was Active.

Turning to `O=C(CN(C(=O)c1cc(O)c(O)c(O)c1)c1ccccc1)N[C@@H]1[C@@H](O)[C@H](O)[C@@H](CO)O[C@H]1O`, the Activity in test [1] is 92.7%; in test [3], 90.1%. The result in test [2] was Active.

For the compound `O=C(CN(C(=O)c1ccc(O)cc1)c1ccc(O)cc1)N[C@@H]1[C@@H](O)[C@H](O)[C@@H](CO)O[C@H]1O`, the Activity in test [1] is 94.9%; in test [3], 95%. Besides, the outcome in test [2] was Active.

Regarding `COc1cc(/C=C/C(=O)O)ccc1O`, the result in test [2] was Active.

In the case of `O=C(CN(C(=O)c1cc(O)c(O)c(O)c1)c1ccccc1)NCCc1c[nH]c2ccccc12`, the results for the Activity in test [1] and in test [3] were 93.8% and 96.2%, respectively. The result in test [2] was Active.

For the compound `O=C(O)c1cc(O)c(O)c(O)c1`, the result in test [2] was Active.

For the compound `O=C(CN(C(=O)c1cc(O)c(O)c(O)c1)c1ccc(O)cc1)N[C@@H]1[C@@H](O)[C@H](O)[C@@H](CO)O[C@H]1O`, the Activity in test [1] came to 91.8%; in test [3], 91%. Moreover, the result in test [2] was Active.

As to `O=C(CN(C(=O)c1ccccc1)c1ccc(O)cc1)N[C@@H]1[C@@H](O)[C@H](O)[C@@H](CO)O[C@H]1O`, the Activity was found to be 98.3% in test [1] and 96.7% in test [3]. For the same compound, the outcome in test [2] was Active.

Consider `O=C(CN(C(=O)c1ccc(O)cc1)c1ccccc1)N[C@@H]1[C@@H](O)[C@H](O)[C@@H](CO)O[C@H]1O`, for which the Activity in test [1] came out at 96.5%; in test [3], 97.8%. In addition, in test [2], the outcome was Active.

With `O=C(CN(C(=O)c1ccccc1)c1ccccc1)N[C@@H]1[C@@H](O)[C@H](O)[C@@H](CO)O[C@H]1O`, the figures for the Activity in test [1] and in test [3] were 100% and 99.3%, respectively. Also, the result in test [2] was inactive.

Regarding `O=C(CN(Cc1ccccc1)C(=O)/C=C/c1ccc(O)c(O)c1)N[C@@H]1[C@@H](O)[C@H](O)[C@@H](CO)O[C@H]1O`, the results for the Activity in test [1] and in test [3] were 93.7% and 94.6%, respectively. Further, in test [2], the outcome was Active.

For `O=C(O)/C=C/c1ccc(O)c(O)c1`, the result in test [2] was Active.

For the compound `O=C(CN(C(=O)c1cc(O)c(O)c(O)c1)c1ccccc1)NC1CCCCC1`, the Activity in test [1] and in test [3] was 97.1% throughout. Also, in test [2], the result was Active.
